Measured values from PMC8274517, “Diaryl azo derivatives as anti-diabetic and antimicrobial agents: synthesis, in vitro, kinetic and docking studies” (Journal of Enzyme Inhibition and Medicinal Chemistry, 2021).

How the values were obtained:
α-glucosidase = experiment: In vitro α-glucosidase inhibition assay (pNPG substrate); type: biochemical, Saccharomyces Cerevisiae
Procedure: The α-glucosidase inhibition assay was performed as described previously. In summary, the stock solution of the enzyme from Saccharomyces Cerevisiae (0.2 U/mL) was prepared in 0.05 M sodium phosphate buffer pH 6.8. […] After incubation, 10 µL of the substrate, p-nitrophenyl α-D-glucopyranoside (pNPG, 5 mM solution in 0.05 M phosphate buffer) was added to the aboveprepared mixture and incubated again under the same experimental conditions. The reaction was stopped with the addition of 0.1 M Na2CO3 and OD405 was taken by a 96-well ELISA reader. The experiment was performed in triplicate.

E. coli = experiment: Antibacterial activity, minimum inhibitory concentration; type: cell-based; design: key: R: resistant; S: sensitive
Procedure: (§1) The prepared azo derivatives were screened for their antibacterial activity against six bacterial strains obtained from hospital isolates i.e. gram positive (S. aureus, S. aureus (DR)) and gram-negative (E. coli, P. aeruginosa, P. aeruginosa (DR), P. vulgaris). All the strains were confirmed by biochemical identification and drug susceptibility methods. The antibacterial evaluation was done by agar disc diffusion method[39]^,[40] and MIC was determined. In summary, a 48-h old inoculum having ∼0.48 OD600, of the above-mentioned bacterial strains was spread on the solidified trypticase soy agar media and Whatman no. 1 filter paper discs (5 mm in diameter) soaked with the title compounds (10 µL/disc of 10 mg/mL) were placed on the plates. Ampicillin and moxifloxacin were used as positive controls and DMSO as negative control respectively.

P. aeruginosa (DR) = experiment: as above; type: cell-based; design: key: R: resistant; S: sensitive
Procedure: as §1

P. aeruginosa (DS) = experiment: as above; type: cell-based; design: key: R: resistant; S: sensitive
Procedure: as §1

P. vulgaris = experiment: as above; type: cell-based; design: key: R: resistant; S: sensitive
Procedure: as §1

S. aureus (DR) = experiment: as above; type: cell-based; design: key: R: resistant; S: sensitive
Procedure: as §1

S. aureus (DS) = experiment: as above; type: cell-based; design: key: R: resistant; S: sensitive
Procedure: as §1

[1] = test system: screened pathogens (S. aureus, P. aeruginosa, E. coli and P. vulgaris); experiment: Antibacterial activity, average MIC over screened pathogens; type: cell-based
Procedure: as §1, with “All the strains were confirmed by biochemical identification and drug susceptibility methods.” left out, “plates.” for “plates. Ampicillin and moxifloxacin were used as positive controls and DMSO as negative control respectively.”

Compound | % Inhibition (α-glucosidase; 15.62 µg/mL) | % Inhibition (α-glucosidase; 31.2 µg/mL) | % Inhibition (α-glucosidase; 125 µg/mL) | % Inhibition (α-glucosidase; 250 µg/mL) | IC50 (α-glucosidase; means ± SEM of triplicate) | Minimum inhibitory concentration: sensitive/resistant (E. coli; 125 µg/200 µL) | Minimum inhibitory concentration: sensitive/resistant (E. coli; 250 µg/200 µL) | Minimum inhibitory concentration: sensitive/resistant (P. aeruginosa (DR); 125 µg/200 µL) | Minimum inhibitory concentration: sensitive/resistant (P. aeruginosa (DR); 250 µg/200 µL) | Minimum inhibitory concentration: sensitive/resistant (P. aeruginosa (DS); 125 µg/200 µL) | Minimum inhibitory concentration: sensitive/resistant (P. aeruginosa (DS); 250 µg/200 µL) | Minimum inhibitory concentration: sensitive/resistant (P. vulgaris; 125 µg/200 µL) | Minimum inhibitory concentration: sensitive/resistant (P. vulgaris; 250 µg/200 µL) | Minimum inhibitory concentration: sensitive/resistant (S. aureus (DR); 125 µg/200 µL) | Minimum inhibitory concentration: sensitive/resistant (S. aureus (DR); 250 µg/200 µL) | Minimum inhibitory concentration: sensitive/resistant (S. aureus (DS); 125 µg/200 µL) | Minimum inhibitory concentration: sensitive/resistant (S. aureus (DS); 250 µg/200 µL) | MIC (average value) [1]
4-((2-chloropyridin-3-yl)diazenyl)naphthalen-2-ol [TR-9] | 22% | 39% | 63% | 78% | 54.4 ± 3.3 µg/mL | R | R | R | R | R | S | R | R | S | S | R | R | –
C[C@H]1O[C@H](O[C@H]2[C@H](O)[C@@H](O)[C@@H](O[C@H]3[C@H](O)[C@@H](O)C(O)O[C@@H]3CO)O[C@@H]2CO)[C@H](O)[C@@H](O)[C@@H]1N[C@H]1C=C(CO)[C@@H](O)[C@H](O)[C@H]1O (stereo partly shown) [Acarbose, reference compound] | 40% | 62% | 85% | 92% | – | – | – | – | – | – | – | – | – | – | – | – | – | –
CC1(C)S[C@@H]2[C@H](NC(=O)[C@H](N)c3ccccc3)C(=O)N2[C@H]1C(=O)O [Ampicillin, reference compound] | – | – | – | – | – | S | S | – | – | S | S | S | S | – | – | S | S | 62.5 µg/200 µL
COc1c(N2C[C@@H]3CCCN[C@@H]3C2)c(F)cc2c(=O)c(C(=O)O)cn(C3CC3)c12 [Moxifloxacin, reference compound] | – | – | – | – | – | – | – | S | S | – | – | – | – | S | S | – | – | –
